Data as given in PubChem BioAssay (NCI).
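All cell lines were grown in 96-well plates and treated with compound for 48 hours. Abbreviation: GI50, concentration required for 50% inhibition of growth. Definition used: TGI = concentration required for complete inhibition of growth.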

Tests used:
Assay in all cases: growth of human tumour cells (NCI), 48 h
MOLT-4 leukemia = system: MOLT-4 leukemia
UACC-257 melanoma = system: UACC-257 melanoma
HCC-2998 colon = system: HCC-2998 colon
HCT-15 colon = system: HCT-15 colon
OVCAR-5 ovarian = system: OVCAR-5 ovarian
HOP-62 NSCLC = system: HOP-62 NSCLC
SK-OV-3 ovarian = system: SK-OV-3 ovarian
HCT-116 colon = system: HCT-116 colon
HT29 colon = system: HT29 colon
MALME-3M melanoma = system: MALME-3M melanoma
HS 578T breast = system: HS 578T breast
OVCAR-4 ovarian = system: OVCAR-4 ovarian
PC-3 prostate = system: PC-3 prostate
RPMI-8226 leukemia = system: RPMI-8226 leukemia
OVCAR-8 ovarian = system: OVCAR-8 ovarian
SK-MEL-28 melanoma = system: SK-MEL-28 melanoma
COLO 205 colon = system: COLO 205 colon
RXF 393 renal = system: RXF 393 renal
SF-295 CNS = system: SF-295 CNS
SN12C renal = system: SN12C renal
MDA-MB-231 breast = system: MDA-MB-231 breast
M14 melanoma = system: M14 melanoma
SNB-19 CNS = system: SNB-19 CNS
NCI-H460 lung = system: NCI-H460 lung
SK-MEL-5 melanoma = system: SK-MEL-5 melanoma
SF-539 CNS = system: SF-539 CNS
BT-549 breast = system: BT-549 breast
DU-145 prostate = system: DU-145 prostate
SF-268 CNS = system: SF-268 CNS
T-47D breast = system: T-47D breast
CAKI-1 renal = system: CAKI-1 renal
U251 CNS = system: U251 CNS
LOX IMVI melanoma = system: LOX IMVI melanoma
OVCAR-3 ovarian = system: OVCAR-3 ovarian
UACC-62 melanoma = system: UACC-62 melanoma
NCI-H522 lung = system: NCI-H522 lung
NCI-H226 lung = system: NCI-H226 lung
UO-31 renal = system: UO-31 renal
SNB-75 CNS = system: SNB-75 CNS
HL-60(TB) leukemia = system: HL-60(TB) leukemia
CCRF-CEM leukemia = system: CCRF-CEM leukemia
SW-620 colon = system: SW-620 colon
ACHN renal = system: ACHN renal
NCI-H23 lung = system: NCI-H23 lung
A498 renal = system: A498 renal
NCI/ADR-RES ovarian = system: NCI/ADR-RES ovarian
786-0 renal = system: 786-0 renal
K-562 leukemia = system: K-562 leukemia
HOP-92 NSCLC = system: HOP-92 NSCLC
KM12 colon = system: KM12 colon
MCF7 breast = system: MCF7 breast
A549 NSCLC = system: A549 NSCLC
SK-MEL-2 melanoma = system: SK-MEL-2 melanoma
SR leukemia = system: SR leukemia
MDA-MB-435 = system: MDA-MB-435
EKVX NSCLC = system: EKVX NSCLC

Cc1ccccc1OCC(O)CN1CCN(c2ccc(Cl)cc2)CC1 (configuration not stated)
GI50 (MOLT-4 leukemia): 14.7 µM
TGI (MOLT-4 leukemia): 57.5 µM
GI50 (UACC-257 melanoma): 20.6 µM
TGI (UACC-257 melanoma): 37.9 µM
GI50 (HCC-2998 colon): 16.7 µM
TGI (HCC-2998 colon): 31.6 µM
GI50 (HCT-15 colon): 19.2 µM
TGI (HCT-15 colon): 40.2 µM
GI50 (OVCAR-5 ovarian): 17.4 µM
TGI (OVCAR-5 ovarian): 34.5 µM
GI50 (HOP-62 NSCLC): 15.9 µM
TGI (HOP-62 NSCLC): 32.3 µM
GI50 (SK-OV-3 ovarian): 21.2 µM
TGI (SK-OV-3 ovarian): 53.8 µM
GI50 (HCT-116 colon): 14.6 µM
TGI (HCT-116 colon): 29.3 µM
GI50 (HT29 colon): 14.5 µM
TGI (HT29 colon): 29.2 µM
GI50 (MALME-3M melanoma): 15.2 µM
TGI (MALME-3M melanoma): 31.2 µM
GI50 (HS 578T breast): 21.4 µM
TGI (HS 578T breast): 68.7 µM
GI50 (OVCAR-4 ovarian): 16 µM
TGI (OVCAR-4 ovarian): 30.2 µM
GI50 (PC-3 prostate): 11.7 µM
TGI (PC-3 prostate): 25.9 µM
GI50 (RPMI-8226 leukemia): 16.3 µM
TGI (RPMI-8226 leukemia): 40.8 µM
GI50 (OVCAR-8 ovarian): 21 µM
TGI (OVCAR-8 ovarian): 44.4 µM
GI50 (SK-MEL-28 melanoma): 18.7 µM
TGI (SK-MEL-28 melanoma): 33.5 µM
GI50 (COLO 205 colon): 15.7 µM
TGI (COLO 205 colon): 30.3 µM
GI50 (RXF 393 renal): 20.2 µM
TGI (RXF 393 renal): 37.8 µM
GI50 (SF-295 CNS): 14.4 µM
TGI (SF-295 CNS): 29.6 µM
GI50 (SN12C renal): 16 µM
TGI (SN12C renal): 30.8 µM
GI50 (MDA-MB-231 breast): 14.4 µM
TGI (MDA-MB-231 breast): 29.8 µM
GI50 (M14 melanoma): 17 µM
TGI (M14 melanoma): 34.6 µM
GI50 (SNB-19 CNS): 17.6 µM
TGI (SNB-19 CNS): 35.5 µM
GI50 (NCI-H460 lung): 16.7 µM
TGI (NCI-H460 lung): 34.1 µM
GI50 (SK-MEL-5 melanoma): 16.3 µM
TGI (SK-MEL-5 melanoma): 30.2 µM
GI50 (SF-539 CNS): 19.5 µM
TGI (SF-539 CNS): 36.5 µM
GI50 (BT-549 breast): 18.3 µM
TGI (BT-549 breast): 33.3 µM
GI50 (DU-145 prostate): 17.9 µM
TGI (DU-145 prostate): 32.7 µM
GI50 (SF-268 CNS): 17.4 µM
TGI (SF-268 CNS): 34.3 µM
GI50 (T-47D breast): 18.5 µM
TGI (T-47D breast): 47.3 µM
GI50 (CAKI-1 renal): 12.5 µM
TGI (CAKI-1 renal): 26.6 µM
GI50 (U251 CNS): 18.7 µM
TGI (U251 CNS): 33.7 µM
GI50 (LOX IMVI melanoma): 15.3 µM
TGI (LOX IMVI melanoma): 31.3 µM
GI50 (OVCAR-3 ovarian): 16.6 µM
TGI (OVCAR-3 ovarian): 31.7 µM
GI50 (UACC-62 melanoma): 13.8 µM
TGI (UACC-62 melanoma): 27.5 µM
GI50 (NCI-H522 lung): 14.1 µM
TGI (NCI-H522 lung): 29.2 µM
GI50 (NCI-H226 lung): 18.6 µM
TGI (NCI-H226 lung): 35.9 µM
GI50 (UO-31 renal): 6.75 µM
TGI (UO-31 renal): 20.8 µM
GI50 (SNB-75 CNS): 15.4 µM
TGI (SNB-75 CNS): 31 µM
GI50 (HL-60(TB) leukemia): 17.6 µM
TGI (HL-60(TB) leukemia): 56 µM
GI50 (CCRF-CEM leukemia): 16.4 µM
TGI (CCRF-CEM leukemia): 44.1 µM
GI50 (SW-620 colon): 16.1 µM
TGI (SW-620 colon): 33.1 µM
GI50 (ACHN renal): 18.8 µM
TGI (ACHN renal): 42.2 µM
GI50 (NCI-H23 lung): 15.8 µM
TGI (NCI-H23 lung): 34.5 µM
GI50 (A498 renal): 11.9 µM
TGI (A498 renal): 24.6 µM
GI50 (NCI/ADR-RES ovarian): 14.8 µM
TGI (NCI/ADR-RES ovarian): 29.5 µM
GI50 (786-0 renal): 17.4 µM
TGI (786-0 renal): 32.6 µM
GI50 (K-562 leukemia): 10.6 µM
TGI (K-562 leukemia): 30.7 µM
GI50 (HOP-92 NSCLC): 10 µM
TGI (HOP-92 NSCLC): 22 µM
GI50 (KM12 colon): 17.8 µM
TGI (KM12 colon): 36.9 µM
GI50 (MCF7 breast): 16.9 µM
TGI (MCF7 breast): 31.5 µM
GI50 (A549 NSCLC): 30.2 µM
TGI (A549 NSCLC): 84 µM
GI50 (SK-MEL-2 melanoma): 18.7 µM
TGI (SK-MEL-2 melanoma): 35 µM
GI50 (SR leukemia): 14.3 µM
TGI (SR leukemia): 40.1 µM
GI50 (MDA-MB-435): 14.4 µM
TGI (MDA-MB-435): 28.8 µM
GI50 (EKVX NSCLC): 13.7 µM
TGI (EKVX NSCLC): 30.9 µM
